The results in this text go back to ChEMBL document CHEMBL1157197, “Design, synthesis and trypanocidal activity of lead compounds based on inhibitors of parasite glycolysis” (Bioorg Med Chem, 2008).

The target in test [1] is T1, Pyruvate kinase (Leishmania mexicana) (UniProt Q27686).
T1 sequence (whole entry): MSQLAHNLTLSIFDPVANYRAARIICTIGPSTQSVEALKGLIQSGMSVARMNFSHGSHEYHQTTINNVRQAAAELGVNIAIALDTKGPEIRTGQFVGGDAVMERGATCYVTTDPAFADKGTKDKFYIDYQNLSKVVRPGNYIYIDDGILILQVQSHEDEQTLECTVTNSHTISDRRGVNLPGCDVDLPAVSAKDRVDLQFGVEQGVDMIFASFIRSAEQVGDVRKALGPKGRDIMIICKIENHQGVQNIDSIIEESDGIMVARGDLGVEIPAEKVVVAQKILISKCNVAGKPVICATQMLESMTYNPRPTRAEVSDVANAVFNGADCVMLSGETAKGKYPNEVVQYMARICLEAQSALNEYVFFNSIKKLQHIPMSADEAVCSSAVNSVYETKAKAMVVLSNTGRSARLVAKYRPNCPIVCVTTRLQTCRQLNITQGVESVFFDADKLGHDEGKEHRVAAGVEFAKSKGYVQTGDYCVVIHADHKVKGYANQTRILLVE
The test can be described thus: Inhibition of Leishmania mexicana pyruvate kinase assessed as enzyme residual activity at 5 mM.

Test [2] addresses T2, ATP-dependent 6-phosphofructokinase (Trypanosoma brucei) (UniProt O15648).
T2 sequence (whole entry): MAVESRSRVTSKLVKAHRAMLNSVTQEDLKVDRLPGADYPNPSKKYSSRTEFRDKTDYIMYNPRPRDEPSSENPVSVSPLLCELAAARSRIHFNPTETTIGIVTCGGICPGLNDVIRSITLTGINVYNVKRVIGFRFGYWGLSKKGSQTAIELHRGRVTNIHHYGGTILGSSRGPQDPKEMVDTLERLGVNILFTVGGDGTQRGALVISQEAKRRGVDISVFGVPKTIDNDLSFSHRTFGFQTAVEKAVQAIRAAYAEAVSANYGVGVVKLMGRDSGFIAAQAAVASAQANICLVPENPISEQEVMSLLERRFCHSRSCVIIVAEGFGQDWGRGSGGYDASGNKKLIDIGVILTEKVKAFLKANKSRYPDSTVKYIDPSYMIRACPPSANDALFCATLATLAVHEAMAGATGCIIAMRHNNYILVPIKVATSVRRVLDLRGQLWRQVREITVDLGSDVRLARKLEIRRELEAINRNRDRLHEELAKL
The test can be described thus: Inhibition of Trypanosoma brucei phosphofructokinase assessed as enzyme residual activity at 5 mM.

Another test addresses T3, Pyruvate kinase (Leishmania mexicana, UniProt Q27686).
T3 sequence (Q27686 whole entry): T1 sequence (whole entry)
The test can be described thus: Inhibition of Leishmania mexicana pyruvate kinase.

`C[C@@H](NC[C@H]1O[C@H](CO)[C@@H](O)[C@@H]1O)c1ccc(Cl)cc1`: the Activity in test [1] came to 84%.

With `OC[C@@H](Cc1ccccc1)NC[C@H]1O[C@H](CO)[C@@H](O)[C@@H]1O`, the Activity in test [1] came out at 97%; in test [2] it was 77%.

For the compound `OC[C@H]1O[C@H](CN[C@H]2c3ccccc3C[C@H]2O)[C@@H](O)[C@@H]1O`, the Activity in test [1] amounted to 103%; in test [2], 52%.

With `COC[C@H](C)NC[C@H]1O[C@H](CO)[C@@H](O)[C@@H]1O`, the Activity stood at 82% in test [1] and 35% in test [2].

As for `Cc1ccccc1CNC[C@H]1O[C@H](CO)[C@@H](O)[C@@H]1O`, the figures for the Activity in test [1] and in test [2] were 100% and 68%, respectively.

As for `C[C@H](NC[C@H]1O[C@H](CO)[C@@H](O)[C@@H]1O)c1ccc(Cl)cc1`, the Activity in test [1] is 58%.

As for `OC[C@H]1O[C@H](CNCc2cccc(Cl)c2)[C@@H](O)[C@@H]1O`, the Activity was determined as 88% in test [1] and 85% in test [2].

As to `CC(C)C[C@@H](CO)NC[C@H]1O[C@H](CO)[C@@H](O)[C@@H]1O`, the values for the Activity in test [1] and in test [2] were 73% and 64%, respectively.

Turning to `OCC(Cc1ccccc1)NC[C@H]1O[C@H](CO)[C@@H](O)[C@@H]1O` (some centres not stated), the Activity in test [1] stood at 59%; in test [2], 47%.

As for `CCCC(C)NC[C@H]1O[C@H](CO)[C@@H](O)[C@@H]1O` (some centres not stated), the values for the Activity in test [1] and in test [2] were 26% and 70%, respectively. In addition, the IC50 (commonly the concentration that inhibits the measured activity by half) on Pyruvate kinase amounted to 2500 µM.

As for `OC[C@H]1O[C@H](CNCc2ccc(Cl)cc2Cl)[C@@H](O)[C@@H]1O`, in test [2], the Activity was 58%.

Turning to `C[C@H](NC[C@H]1O[C@H](CO)[C@@H](O)[C@@H]1O)c1ccc(F)cc1`, the Activity in test [1] worked out at 36%.

On to `Cc1ccc(CNC[C@H]2O[C@H](CO)[C@@H](O)[C@@H]2O)cc1C`, for which the Activity in test [1] is 85%; in test [2] it was 59%.

Turning to `OC[C@H]1O[C@H](CNC2CCCCCCC2)[C@@H](O)[C@@H]1O`, the Activity in test [1] turned out to be 57%; in test [2] it was 64%.

Regarding `O=C(NC1CCCCCC1)[C@H]1O[C@H](CNC2CCCCCC2)[C@@H](O)[C@@H]1O`, the Activity in test [1] is 1.9%. On Pyruvate kinase, half-maximal inhibition (IC50) required 26 µM.

In the case of `O=C(Nc1ccc([N+](=O)[O-])cc1)[C@H]1O[C@H](CNC2CCCCCC2)[C@@H](O)[C@@H]1O`, in test [1], the Activity was found to be 12.5%.

As for `CC(C)[C@H](C)NC[C@H]1O[C@H](CO)[C@@H](O)[C@@H]1O`, the values for the Activity in test [1] and in test [2] were 26% and 49%, respectively. At Pyruvate kinase, this compound registered a 50% inhibitory concentration (IC50) of 2300 µM.

As to `OC[C@H]1O[C@H](CNCc2ccc(F)cc2)[C@@H](O)[C@@H]1O`, the Activity in test [1] was 107%; in test [2], 59%.

On to `OC[C@H]1O[C@H](CN[C@@H]2C[C@@H]3CC[C@@H]2C3)[C@@H](O)[C@@H]1O`, for which the Activity in test [1] was determined as 47%.

Regarding `OC[C@H]1O[C@H](CNC(c2ccccc2)c2ccccc2)[C@@H](O)[C@@H]1O`, the Activity was found to be 89% in test [1] and 30% in test [2].

With `OC[C@H]1O[C@H](CN[C@H]2C[C@@H]3CC[C@@H]2C3)[C@@H](O)[C@@H]1O`, the Activity came to 19% in test [1] and 40% in test [2]. In addition, half-maximal inhibition against Pyruvate kinase (IC50) required 1500 µM.

On to `CC(C)CCCC(C)NC[C@H]1O[C@H](CO)[C@@H](O)[C@@H]1O` (some centres not stated), for which the Activity came out at 80% in test [1] and 87% in test [2].

With `OC[C@H]1O[C@H](CNC2CCCC2)[C@@H](O)[C@@H]1O`, the Activity in test [1] worked out at 52%; in test [2], 87%. The midpoint of inhibition on Pyruvate kinase, the IC50, lay at 4100 µM.

Consider `CC[C@@H](C)NC[C@H]1O[C@H](CO)[C@@H](O)[C@@H]1O`, for which, in test [1], the Activity came out at 28%.

Turning to `COc1ccc([C@H](C)NC[C@H]2O[C@H](CO)[C@@H](O)[C@@H]2O)cc1`, the Activity in test [1] was 22%. At Pyruvate kinase, this compound showed an IC50 of 3500 µM.

As to `OC[C@H]1O[C@H](CNCc2ccc(Cl)cc2)[C@@H](O)[C@@H]1O`, the Activity was 81% in test [1] and 65% in test [2].

Regarding `Cc1ccc(CNC[C@H]2O[C@H](CO)[C@@H](O)[C@@H]2O)cc1`, the values for the Activity in test [1] and in test [2] were 90% and 73%, respectively.

Regarding `OC[C@H]1O[C@H](CNCc2ccccc2Cl)[C@@H](O)[C@@H]1O`, the Activity in test [1] turned out to be 71%; in test [2], 65%.

As to `COc1ccc([C@@H](C)NC[C@H]2O[C@H](CO)[C@@H](O)[C@@H]2O)cc1`, the Activity in test [1] turned out to be 25%. On Pyruvate kinase, this compound displayed an IC50 of 900 µM.

Consider `CC(CCCC(C)(C)O)NC[C@H]1O[C@H](CO)[C@@H](O)[C@@H]1O` (some centres not stated), for which the Activity in test [1] came out at 125%; in test [2] it was 58%.

`Cc1ccc(CNC[C@H]2O[C@H](CO)[C@@H](O)[C@@H]2O)c(C)c1`: the Activity was 103% in test [1] and 87% in test [2].

As to `C[C@@H](NC[C@H]1O[C@H](CO)[C@@H](O)[C@@H]1O)c1ccc2ccccc2c1`, the Activity in test [1] is 34%; in test [2] it was 33%. Half-maximal inhibition at Pyruvate kinase (IC50) required 1500 µM.

As for `CC(C)CCC(C)NC[C@H]1O[C@H](CO)[C@@H](O)[C@@H]1O` (some centres not stated), the Activity was 115% in test [1] and 44% in test [2].

With `O=C(Nc1ccccc1)[C@H]1O[C@H](CNC2CCCCCC2)[C@@H](O)[C@@H]1O`, the Activity in test [1] was 24.8%.

Consider `OC[C@H]1O[C@H](CNC2CCc3ccccc32)[C@@H](O)[C@@H]1O` (some centres not stated), for which the values for the Activity in test [1] and in test [2] were 86% and 41%, respectively.

Consider `OC[C@H]1O[C@H](CNC2CCCCC2)[C@@H](O)[C@@H]1O`, for which the Activity in test [1] is 83%; in test [2], 69%.

Regarding `O=C(Nc1cccc([N+](=O)[O-])c1)[C@H]1O[C@H](CNC2CCCCCC2)[C@@H](O)[C@@H]1O`, in test [1], the Activity was determined as 7.6%. In addition, the IC50 against Pyruvate kinase worked out at 53 µM.

In the case of `C[C@@H](NC[C@H]1O[C@H](CO)[C@@H](O)[C@@H]1O)c1ccc(F)cc1`, in test [1], the Activity is 53%.

Consider `CC(CCc1ccccc1)NC[C@H]1O[C@H](CO)[C@@H](O)[C@@H]1O` (some centres not stated), for which the Activity in test [1] came out at 95%; in test [2] it was 73%.

Consider `C[C@H](NC[C@H]1O[C@H](CO)[C@@H](O)[C@@H]1O)c1ccc2ccccc2c1`, for which, in test [1], the Activity amounted to 30%. At Pyruvate kinase, the IC50 came out at 1500 µM.

Turning to `CC(C)[C@@H](C)NC[C@H]1O[C@H](CO)[C@@H](O)[C@@H]1O`, the Activity in test [1] came out at 86%; in test [2], 51%.

Turning to `OC[C@H]1O[C@H](CNCc2cccc(F)c2)[C@@H](O)[C@@H]1O`, the figures for the Activity in test [1] and in test [2] were 100% and 57%, respectively.

`OC[C@H]1O[C@H](CNC2CCC2)[C@@H](O)[C@@H]1O`: the results for the Activity in test [1] and in test [2] were 43% and 54%, respectively. Also, on Pyruvate kinase, the IC50 worked out at 4300 µM.

As for `OC[C@H]1O[C@H](CNC2Cc3ccccc3C2)[C@@H](O)[C@@H]1O`, the figures for the Activity in test [1] and in test [2] were 49% and 33%, respectively.

`CCC(CO)NC[C@H]1O[C@H](CO)[C@@H](O)[C@@H]1O` (some centres not stated): the Activity worked out at 90% in test [1] and 36% in test [2].

As to `OC[C@H]1O[C@H](CNCc2cccc(C(F)(F)F)c2)[C@@H](O)[C@@H]1O`, the Activity in test [1] stood at 105%; in test [2] it was 46%.

With `OCCC(NC[C@H]1O[C@H](CO)[C@@H](O)[C@@H]1O)c1ccccc1` (some centres not stated), the values for the Activity in test [1] and in test [2] were 85% and 47%, respectively.

With `OC[C@H]1O[C@H](CNCc2ccc(-c3ccccc3)cc2)[C@@H](O)[C@@H]1O`, in test [2], the Activity was 75%.

With `CC(NC[C@H]1O[C@H](CO)[C@@H](O)[C@@H]1O)C(O)c1ccccc1` (some centres not stated), the Activity in test [1] was 80%; in test [2], 64%.

Consider `Cc1ccc(C)c(CNC[C@H]2O[C@H](CO)[C@@H](O)[C@@H]2O)c1`, for which the Activity in test [2] came to 69%.

Regarding `OC[C@H]1O[C@H](CN[C@@H]2c3ccccc3C[C@@H]2O)[C@@H](O)[C@@H]1O`, the Activity is 60% in test [1] and 57% in test [2].

As for `O=C(NCc1ccccc1)[C@H]1O[C@H](CNC2CCCCCC2)[C@@H](O)[C@@H]1O`, in test [1], the Activity stood at 11.5%.

For `CC(C)C[C@H](CO)NC[C@H]1O[C@H](CO)[C@@H](O)[C@@H]1O`, the Activity is 86% in test [1] and 52% in test [2].

For `Cc1cccc(CNC[C@H]2O[C@H](CO)[C@@H](O)[C@@H]2O)c1`, the Activity worked out at 89% in test [1] and 61% in test [2].

For the compound `C=CCNC(=O)[C@H]1O[C@H](CNC2CCCCCC2)[C@@H](O)[C@@H]1O`, the Activity in test [1] was 19.1%.

For the compound `OC[C@H](Cc1ccccc1)NC[C@H]1O[C@H](CO)[C@@H](O)[C@@H]1O`, the Activity in test [1] stood at 72%; in test [2] it was 83%.

With `OC[C@H]1O[C@H](CNCc2ccccc2F)[C@@H](O)[C@@H]1O`, the Activity was 42% in test [1] and 63% in test [2].
